What was measured:
Type in all cases: cell-based
[1] = test system: human iPS cells (1231A3 strain); test: Form of cell aggregate in suspension culturing, bright field observation (good / medium / bad form); details: step 1 for 1 day: SB431542 5 μM or LDN193189 100 nM; day 9
[2] = test system: human iPS cells (1231A3 strain); test: Neural tissue / neuroepithelium formation in cell aggregates, bright field observation; details: for cell aggregate growth and neuroepithelium formation: step 1 for 1 day: SB431542 5 μM or LDN193189 100 nM, both U-bottom plate and F-bottom culture dish, day 19
Procedure: The above human iPS cells were treated with the cell dispersion solution by using TrypLE Select (Life Technologies), further dispersed into single cells by pipetting operation, and the above human iPS cells dispersed into single cells were suspended in 100 μl of a serum-free medium at 1.2×10^4 cells per well of a non-cell-adhesive 96-well culture plate ([…], manufactured by SUMITOMO BAKELITE), and subjected to suspension culturing at 37° C., 5% CO2. As the serum-free medium (gfCDM+KSR) therefor, a serum-free medium which is a 1:1 mixture of F-12 medium and IMDM medium supplemented with 10% KSR, 450 μM 1-monothioglycerol, 1× Chemically defined lipid concentrate was used. At the time of the start of suspension culturing (day 0 after the start of suspension culturing, start of step 2), Y27632 (final concentration 20 μM) was added to the above serum-free medium. By day 2 after the start of suspension culturing, cell aggregates were formed under both conditions with preconditioning and conditions without preconditioning (step 2 completed, step 3 start). On day 3 after the start of suspension culturing, a serum-free medium (50 μl) free of Y27632 was added. On day 6 or later after the start of suspension culturing, a half amount of the medium was changed to the above serum-free medium free of Y27632 once per 2-4 days. In the half-medium change operation, a half volume, namely 75 μl, of the medium in the culture vessel was discarded, the above fresh serum-free medium (75 μl) was added to make the total medium amount 150 μl. […]
At the time of the start of suspension culturing (day 0 after the start of suspension culturing, start of step 2), the cells were cultured under the following 2 conditions including condition 1 and condition 2. As condition 1(+SAG), at the time of the start of suspension culturing, Y27632 (final concentration 20 μM) and SAG (Shh signal transduction pathway activating substance, 300 nM) were added to the above serum-free medium. As condition 2(−SAG), at the time of the start of suspension culturing, Y27632 (final concentration 20 μM) was added to the above serum-free medium and SAG was not added. By day 2 after the start of suspension culturing, cell aggregates were formed (step 2 completed, step 3 start) under both conditions. On day 3 after the start of suspension culturing, a medium (50 μl) free of Y27632, SAG and containing human recombinant BMP4 (manufactured by R&D) was added such that the final concentration of exogenous human recombinant BMP4 was 1.5 nM (55 ng/ml). On day 6 after the start of suspension culturing, a half amount of the medium was changed with a serum-free medium free of Y27632, SAG and human recombinant BMP4. Thereafter, a half amount of the medium was changed, once every 2-4 days, with the above serum-free medium free of Y27632, SAG, and human recombinant BMP4.
The thus-prepared cells were subjected to bright field observation on day 18 after the start of suspension culturing under an inverted microscope (KEYENCE) (FIG. 15).
At the time of the start of suspension culturing (day 0 after the start of suspension culturing, start of step 2), the cells were cultured under the following 2 conditions including condition 1 and condition 2. As condition 1(+SAG), at the time of the start of suspension culturing, Y27632 (final concentration 20 μM) and SAG (Shh signal transduction pathway activating substance, final concentration 30 nM) were added to the above serum-free medium. As condition 2(−SAG), at the time of the start of suspension culturing, Y27632 (final concentration 20 μM) was added to the above serum-free medium and SAG was not added. By day 2 after the start of suspension culturing, cell aggregates were formed under both conditions (step 2 completed, step 3 start). […]

[3] = test system: human iPS cells (1231A3 strain); test: Immunostaining of aggregate sections for neural tissue markers Nestin, TuJ1, PSA-NCAM
Source text: Furthermore, cell aggregates on day 23 after the start of suspension culturing, which were produced from the above iPS cells that underwent a preconditioning treatment as a starting material (conditions of FIG. 5B) were fixed with 4% para-formaldehyde to prepare frozen sections. […] Furthermore, it could be confirmed from the analysis of serial sections, that the regions that could be determined to be neural tissue by morphology observation in the bright field under an inverted microscope were Nestin-positive, TuJ1-positive, and PSA-NCAM-positive (FIG. 5C-E).
Furthermore, the above cell aggregates on day 23 after the start of suspension culturing, which were produced from the above iPS cells that underwent a preconditioning treatment with TGFβR inhibitor (SB431542) or BMPR inhibitor (LDN193189) as a starting material were fixed with 4% para-formaldehyde to prepare frozen sections. […] Furthermore, it could be confirmed from the analysis of serial sections, that the regions that could be identified to be neural tissue by morphology observation in the bright field images were Nestin-positive, TuJ1-positive, and PSA-NCAM-positive (FIG. 8A-F).
Cell aggregates were prepared according to the method described in Example 10 by using, as a starting material, human iPS cells using Essential 8 medium as a feeder-free culturing, TGFβR inhibiting substance (SB431542) in step 1, and a Shh signal transduction pathway activating substance in step 2. The cell aggregates on day 18 after the start of suspension culturing were fixed with 4% para-formaldehyde to prepare frozen section. […] Furthermore, it could be confirmed from the analysis of serial sections, that the regions that could be identified to be neural tissue by morphology observation in the bright field images were Nestin-positive, TuJ1-positive, and PSA-NCAM-positive (FIG. 11).

[4] = step 1 for 1 day: SB431542 5 μM, LDN193189 100 nM or SAG 300 nM, SAG 300 nM in step 2, with or without BMP4 1.5 nM in step 3, day 23
[5] = Essential 8 medium, SB431542 in step 1, SAG in step 2, day 18
[6] = SB431542 5 μM or LDN193189 100 nM in step 1, SAG 300 nM in step 2, StemFit, day 23
[7] = LDN193189 100 nM 1 day in step 1, day 23
[8] = LDN193189 100 nM in step 1, no SAG in step 2, StemFit, day 23

Structure (SMILES) | shape of cell aggregate in step 3 compared with untreated group [1] | cell aggregate growth and neuroepithelium formation ([2]; SAG 300 nM in step 2) | cell aggregate and neural tissue formation [2, 4] | proportion of Nestin-positive cells in the total cells [3, 5] | proportion of PSA-NCAM-positive cells [3, 5] | proportion of TuJ1-positive cells in the total cells [3, 5] | proportion of Nestin-positive cells in the total cells [3, 6] | proportion of PSA-NCAM-positive cells [3, 6] | proportion of TuJ1-positive cells in the total cells [3, 6] | cell aggregate and neural tissue formation ([2]; step 1: SAG 300 nM for 24-144 hr, co-presence of A83-01 0.5 μM for the last 24 hr, SAG 30 nM added or not in step 2, day 16) | cell aggregate and neural tissue formation ([2]; step 1: SAG 300 nM for 48 or 72 hr, or A83-01 0.5 μM and SAG 300 nM for 24, 48 or 72 hr, SAG 30 nM added or not added in step 2, BMP4 1.5 nM on day 3, day 17) | cell aggregate containing a neural tissue (maintained, neural tissue not less than 10%) [2, 7] | cell aggregate with a bad form (collapsed, neural tissue not more than 3%) [2, 7] | cell aggregate with a medium level form (maintained, neural tissue not more than 10%) [2, 7] | neural tissue formation in step 3 [2, 7] | proportion of Nestin-positive cells in the total cells [3, 8] | proportion of PSA-NCAM-positive cells in the total cells [3, 8] | proportion of TuJ1-positive cells in the total cells [3, 8]
NC(=O)c1ccc(-c2nc(-c3ccc4c(c3)OCO4)c(-c3ccccn3)[nH]2)cc1 [SB431542, 4-(5-benzol[1,3]dioxol-5-yl-4-pyridin-2-yl-1H-imidazol-2-yl)-benzamide] | good shape of cell aggregate | a cell aggregate grew and neuroepithelium was formed | a neural tissue can be formed efficiently | about 30% | about 70% | about 70% | about 20% | about 70% | about 70% |  |  |  |  |  |  |  |  | 
CNC1CCC(N(Cc2cccc(-c3ccncc3)c2)C(=O)c2sc3ccccc3c2Cl)CC1 (stereo not shown) [SAG] |  |  | a neural tissue can be formed efficiently |  |  |  |  |  |  | a neural tissue could be formed efficiently | a neural tissue can be formed efficiently |  |  |  |  |  |  | 
c1ccc2c(-c3cnn4cc(-c5ccc(N6CCNCC6)cc5)cnc34)ccnc2c1 [LDN193189, 4-[6-(4-piperazin-1-ylphenyl)pyrazolo[1,5-a]pyrimidin-3-yl]quinoline] | good shape of a cell aggregate | a cell aggregate grew and neuroepithelium was formed | a neural tissue can be formed efficiently |  |  |  | about 20% | about 70% | about 70% |  |  | about 100% | about 0% | about 0% | a neural tissue having a neuroepithelial structure was formed | about 20% | about 70% | about 70%

— patent US12492373B2, “Production method for nerve tissue” (Racthera Co., Ltd., priority 2014, dated 2025)
